Measurements as given in ChEMBL document CHEMBL1275454, “Assessment of Aspergillus fumigatus burden in pulmonary tissue of guinea pigs by quantitative PCR, galactomannan enzyme immunoassay, and quantitative culture” (2008).
Calls of active or inactive are those of the source. The rule behind the calls is not given here.

Assays:
Aspergillus fumigatus [1] = assay: Antimicrobial activity against Aspergillus fumigatus AF293 infected in hartley guinea pig assessed as log reduction in […] fungal burden at 10 mg/kg, po BID after 4 to 7 days postinfection; format: functional
Aspergillus fumigatus [2] = assay: Antimicrobial activity against Aspergillus fumigatus AF293 infected in hartley guinea pig assessed as time to death at 10 mg/kg, po BID for 8 days postinfection; format: functional; conditions: AF293, in Cavia porcellus, 192 h
Aspergillus fumigatus [3] = assay: Antimicrobial activity against Aspergillus fumigatus AF293 infected in hartley guinea pig assessed as decreased fungal burden in lung at 10 mg/kg, po BID for 8 days postinfection; format: functional, organism-based; design: dose 10 mg/kg
Aspergillus fumigatus [4] = assay: Antimicrobial activity against Aspergillus fumigatus AF293 infected in hartley guinea pig assessed as decreased fungal burden in lung at 10 mg/kg, po BID after 4 to 6 days postinfection; format: functional, organism-based; design: dose 10 mg/kg
Aspergillus fumigatus [5] = assay: Antimicrobial activity against Aspergillus fumigatus AF293 infected in hartley guinea pig assessed as survival rate at 10 mg/kg, po BID for 8 days postinfection; format: functional

**Q.** Which results are given for C[C@@H](c1ncncc1F)[C@](O)(Cn1cncn1)c1ccc(F)cc1F [VORICONAZOLE]?
**A.** FC (Aspergillus fumigatus [1]): 2.98; survival at 10 mg/kg (Aspergillus fumigatus [2]): 62.5%; Activity (Aspergillus fumigatus [3]): Active; Activity (Aspergillus fumigatus [4]): Active; Survival (Aspergillus fumigatus [5]): 9.13 days
